From US20250092039A1, “GLUTARIMIDE-CONTAINING PAN-KRAS-MUTANT DEGRADER COMPOUNDS AND USES THEREOF” (Tiger Biotherapeutics Inc., priority 2022, published 2025)

Assays:
KRAS G12V = KRAS G12V (Homo sapiens (Human), UniProt P01116, G12V); assay: KRAS G12V degradation in SW620 cells (Western blot, DC50); type: cell-based; conditions: 24 hours
Experimental: SW620 (KRAS G12V homozygous), AsPC1 (KRAS G12D homozygous), MIA PaCa2 (KRAS G12C homozygous), A549 (KRAS G12S homozygous) and MCF7 (KRAS WT) cells were obtained from American Type Culture Collection (ATCC). […] The following day, the test compound was administered to the cells by using 1000× compound stock solution prepared in DMSO at various concentrations. After administration of the compound, the cells were then incubated at 37° C. for 24 hours. Upon completion, the cells were washed with PBS and protein was collected in Laemmli sample buffer (1×; VWR International). Proteins in cell lysate were separated by SDS-PAGE and transferred to Odyssey nitrocellulose membranes (Licor) with iblot® dry blotting transfer system (ThermoFisher). Nonspecific binding was blocked by incubating membranes with Intercept Blocking Buffer (Licor) for 1 hour at room temperature with gentle shaking. […] After washing 3 times with TBS-T, the membranes were incubated with IRDye® 800CW goat anti-rabbit IgG (1:20,000, Licor) and IRDye® 680RD goat anti-mouse IgG (1:20,000, Licor) for 1 hour. After TBS-T washes, membranes were rinsed in TBS and Western blot images were acquired by Odyssey CLx (LI-COR Biosciences).
The signal intensity of target proteins was calculated using ImageStudio software. KRAS fluorescent intensity (FLU) from DMSO (vehicle) treatment was set as 100%. Relative KRAS expression level was determined by the following formula: […]
The percentage of KRAS expression was calculated using Microsoft Excel. The half-maximal degradation concentration (DCso) values were generated by GraphPad Prism (Version 9) using the dose-response equation of variable slope (four parameters).

SW620 cells = assay: 3D cell growth inhibition of SW620 cells carrying endogenous KRAS G12V mutation (CellTiter-Glo 3D, GI50); type: cell-based; conditions: Homo sapiens, SW-620, 144 h; SW620 cells, 6 days; read-out: SW620 3D cell growth GI50
Experimental: The following day, the test compound was administered to the cells by using 1000× compound stock solution prepared in DMSO at various concentrations. 1000× compound stock solution was first diluted in culturing medium to 10×, then 10 μL compound medium was added to each well in the cell plates. After administration of the compound, the cells were then incubated at 37° C. for 6 days. Upon completion, the plates were equilibrated at room temperature for approximately 10 minutes. 100 μL of CellTiter-Glo® 3D Reagent (Promega) was added to each well. The plates were then incubated at room temperature for 30 minutes and luminescence was recorded by EnSpire plate reader (PerkinElmer).

KRAS-G12V/RAF1 = KRAS-G12V/RAF1 (Homo sapiens (Human), UniProt P01116, G12V); assay: KRAS/RAF1 binding inhibition assay (AlphaScreen)
Sequence of KRAS-G12V/RAF1 (P01116-2 other isoform, or with tags, fused parts or gaps G12V): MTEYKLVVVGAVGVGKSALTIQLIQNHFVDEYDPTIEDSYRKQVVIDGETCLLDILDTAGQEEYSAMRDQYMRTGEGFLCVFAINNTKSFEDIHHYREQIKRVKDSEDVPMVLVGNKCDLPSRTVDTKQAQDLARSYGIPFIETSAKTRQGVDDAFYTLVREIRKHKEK
Experimental: Binding affinity against GTP-bound KRAS of the compounds disclosed herein was measured by monitoring the interaction of guanosine 5′-[β,γ-imido]triphosphate-bound (GppNHp-bound) KRAS with the RBD domain of RAF1 in the presence of the test compound. […] The test compounds in 2% DMSO (final concentration) at various concentrations were then added to the reaction mixture and incubated for 60 minutes at 4° C.
Raw ALphaScreen data were converted to a percentage of inhibition (relative to DMSO) using the following equations: • a) For a given test compound concentration X: […]
The IC50 values were determined by nonlinear regression of plots of [inhibitor] vs. percentage of inhibition with variable slope, analyzed using GraphPad Prism (Version 9).

Sequence of KRAS G12V (P01116-2 other isoform, or with tags, fused parts or gaps G12V): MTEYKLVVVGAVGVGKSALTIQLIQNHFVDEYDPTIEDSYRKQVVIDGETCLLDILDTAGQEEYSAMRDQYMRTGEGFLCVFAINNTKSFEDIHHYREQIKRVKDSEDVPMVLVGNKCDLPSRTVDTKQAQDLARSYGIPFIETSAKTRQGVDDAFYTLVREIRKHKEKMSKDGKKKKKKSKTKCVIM

| DC50 (KRAS G12V) | GI50 (SW620 cells) | IC50 (KRAS-G12V/RAF1) | SMILES |
| --- | --- | --- | --- |
| > 100 nM | > 100 nM |  | Cc1cc(N)nc(-c2c(Cl)c3c4c(nc(OCC5(CN6CCC7(CC6)CC(CN6CCN(c8ccc9c(c8)CN([C@H]8CCC(=O)NC8=O)C9=O)CC6)C7)CC5)nc4c2F)N(C(C)c2cccnc2N)CCO3)c1C(F)(F)F (stereo partly drawn) [Compound 5, (3S)-3-(5-(4-((7-((1-(((9-(6-amino-4-methyl-3-(trifluoromethyl)pyridin-2-yl)-4-(1-(2-aminopyridin-3-yl)ethyl)-8-chloro-10-fluoro-5,6-dihydro-4H-[1,4]oxazepino[5,6,7-de]quinazolin-2-yl)oxy)methyl)cyclopropyl)methyl)-7-azaspiro[3.5]nonan-2-yl)methyl)piperazin-1-yl)-1-oxoisoindolin-2-yl)piperidine-2,6-dione] |
| > 100 nM | > 100 nM |  | CCc1c(F)ccc2cc(O)cc(-c3ncc4c(N5CCC[C@@](C)(O)C5)nc(OCC5(CN6CCC(N7CC(CN8CCN(c9ccc(C%10CCC(=O)NC%10=O)cc9)CC8)C7)CC6)CC5)nc4c3F)c12 (stereo partly drawn) [Compound 21, 3-(4-(4-((1-(1-((1-(((7-(8-ethyl-7-fluoro-3-hydroxynaphthalen-1-yl)-8-fluoro-4-((R)-3-hydroxy-3-methylpiperidin-1-yl)pyrido[4,3-d]pyrimidin-2-yl)oxy)methyl)cyclopropyl)methyl)piperidin-4-yl)azetidin-3-yl)methyl)piperazin-1-yl)phenyl)piperidine-2,6-dione] |
| > 100 nM | > 100 nM |  | CCc1c(F)ccc2cc(O)cc(-c3ncc4c(N5CCC[C@@](C)(O)C5)nc(OCC5(CN6CCC7(CC6)CC(CN6Cc8ccc(C9CCC(=O)NC9=O)cc8C6)C7)CC5)nc4c3F)c12 (stereo partly drawn) [Compound 34, 3-(2-((7-((1-(((7-(8-ethyl-7-fluoro-3-hydroxynaphthalen-1-yl)-8-fluoro-4-((R)-3-hydroxy-3-methylpiperidin-1-yl)pyrido[4,3-d]pyrimidin-2-yl)oxy)methyl)cyclopropyl)methyl)-7-azaspiro[3.5]nonan-2-yl)methyl)isoindolin-5-yl)piperidine-2,6-dione] |
| > 100 nM | > 100 nM |  | C[C@@]1(O)CCCN(c2nc(OCC3(CN4CCC5(CCC(N6CCN(c7ccc8c(c7)CN([C@H]7CCC(=O)NC7=O)C8=O)CC6)CC5)CC4)CC3)nc3c(F)c(-c4cc(N)cc5ccc(F)c(F)c45)ncc23)C1 [Compound 35, (S)-3-(5-(4-(3-((1-(((7-(3-amino-7,8-difluoronaphthalen-1-yl)-8-fluoro-4-((R)-3-hydroxy-3-methylpiperidin-1-yl)pyrido[4,3-d]pyrimidin-2-yl)oxy)methyl)cyclopropyl)methyl)-3-azaspiro[5.5]undecan-9-yl)piperazin-1-yl)-1-oxoisoindolin-2-yl)piperidine-2,6-dione] |
| > 100 nM | > 100 nM |  | CCc1c(F)ccc2cc(O)cc(-c3ncc4c(N5CCC[C@@](C)(OC)C5)nc(OCC5(CN6CCC7(CC6)CC(CN6CCN(c8ccc9c(c8)CN([C@H]8CCC(=O)NC8=O)C9=O)CC6)C7)CC5)nc4c3F)c12 [Compound 36, (S)-3-(5-(4-((7-((1-(((7-(8-ethyl-7-fluoro-3-hydroxynaphthalen-1-yl)-8-fluoro-4-((R)-3-methoxy-3-methylpiperidin-1-yl)pyrido[4,3-d]pyrimidin-2-yl)oxy)methyl)cyclopropyl)methyl)-7-azaspiro[3.5]nonan-2-yl)methyl)piperazin-1-yl)-1-oxoisoindolin-2-yl)piperidine-2,6-dione] |
| 1 to 10 nM | < 10 nM |  | CCc1c(F)ccc2cc(O)cc(-c3ncc4c(N5CCCC6(CCO6)C5)nc(OCC5(CN6CCC(CN7CC(N8CCN(c9ccc%10c(c9)CN([C@H]9CCC(=O)NC9=O)C%10=O)CC8)C7)CC6)CC5)nc4c3F)c12 (stereo partly drawn) [Compound 37, (3S)-3-(5-(4-(1-((1-((1-(((7-(8-ethyl-7-fluoro-3-hydroxynaphthalen-1-yl)-8-fluoro-4-(1-oxa-6-azaspiro[3.5]nonan-6-yl)pyrido[4,3-d]pyrimidin-2-yl)oxy)methyl)cyclopropyl)methyl)piperidin-4-yl)methyl)azetidin-3-yl)piperazin-1-yl)-1-oxoisoindolin-2-yl)piperidine-2,6-dione] |
| 1 to 10 nM | < 10 nM |  | CCc1c(F)ccc2cc(O)cc(-c3ncc4c(N5CCC[C@]6(CCO6)C5)nc(OCC5(CN6CC7(CCC(N8CCN(c9cc(F)c(C%10CCC(=O)NC%10=O)c(F)c9)CC8)CC7)C6)CC5)nc4c3F)c12 (stereo partly drawn) [Compound 85, 3-(4-(4-(2-((1-(((7-(8-ethyl-7-fluoro-3-hydroxynaphthalen-1-yl)-8-fluoro-4-((S)-1-oxa-6-azaspiro[3.5]nonan-6-yl)pyrido[4,3-d]pyrimidin-2-yl)oxy)methyl)cyclopropyl)methyl)-2-azaspiro[3.5]nonan-7-yl)piperazin-1-yl)-2,6-difluorophenyl)piperidine-2,6-dione] |
| > 100 nM | > 100 nM |  | CCc1c(F)ccc2cc(O)cc(-c3ncc4c(N5CCCNC(=O)C5)nc(OCC5(CN6CCC7(CC6)CC(CN6CCN(c8ccc9c(c8)CN([C@H]8CCC(=O)NC8=O)C9=O)CC6)C7)CC5)nc4c3F)c12 [Compound 93, (S)-3-(5-(4-((7-((1-(((7-(8-ethyl-7-fluoro-3-hydroxynaphthalen-1-yl)-8-fluoro-4-(3-oxo-1,4-diazepan-1-yl)pyrido[4,3-d]pyrimidin-2-yl)oxy)methyl)cyclopropyl)methyl)-7-azaspiro[3.5]nonan-2-yl)methyl)piperazin-1-yl)-1-oxoisoindolin-2-yl)piperidine-2,6-dione] |
| 1 to 10 nM | < 10 nM |  | CCc1c(F)ccc2cc(O)cc(-c3ncc4c(N5CCC[C@@](C)(O)C5)nc(OCC5(CN6CC7(CC(N8CCN(c9ccc%10c(c9)CN([C@H]9CCC(=O)NC9=O)C%10=O)CC8)C7)C6)CC5)nc4c3F)c12 [Compound 122, (S)-3-(5-(4-(2-((1-(((7-(8-ethyl-7-fluoro-3-hydroxynaphthalen-1-yl)-8-fluoro-4-((R)-3-hydroxy-3-methylpiperidin-1-yl)pyrido[4,3-d]pyrimidin-2-yl)oxy)methyl)cyclopropyl)methyl)-2-azaspiro[3.3]heptan-6-yl)piperazin-1-yl)-1-oxoisoindolin-2-yl)piperidine-2,6-dione] |
| < 1 nM | < 10 nM |  | C[C@@]1(O)CCCN(c2nc(OCC3(CN4CCC(CN5CCN(c6ccc7c(c6)CN([C@H]6CCC(=O)NC6=O)C7=O)CC5)CC4)CC3)nc3c(F)c(-c4cc(O)cc5ccc(F)c(Cl)c45)ncc23)C1 [Compound 156, (S)-3-(5-(4-((1-((1-(((7-(8-chloro-7-fluoro-3-hydroxynaphthalen-1-yl)-8-fluoro-4-((R)-3-hydroxy-3-methylpiperidin-1-yl)pyrido[4,3-d]pyrimidin-2-yl)oxy)methyl)cyclopropyl)methyl)piperidin-4-yl)methyl)piperazin-1-yl)-1-oxoisoindolin-2-yl)piperidine-2,6-dione] |
| > 100 nM |  | 20 to 200 nM | CCc1c(F)ccc2cc(O)cc(-c3ncc4c(N5CCC[C@@](C)(O)C5)nc(OCC5(CN6CCC7(CC6)CC(F)(C6CCN(c8ccc9c(c8)CN(C8CCC(=O)NC8=O)C9=O)CC6)C7)CC5)nc4c3F)c12 (stereo partly drawn) [Compound 185, 3-(5-(4-(7-((1-(((7-(8-ethyl-7-fluoro-3-hydroxynaphthalen-1-yl)-8-fluoro-4-((R)-3-hydroxy-3-methylpiperidin-1-yl)pyrido[4,3-d]pyrimidin-2-yl)oxy)methyl)cyclopropyl)methyl)-2-fluoro-7-azaspiro[3.5]nonan-2-yl)piperidin-1-yl)-1-oxoisoindolin-2-yl)piperidine-2,6-dione] |
